Results taken from US8309734B2 (Hoffmann-La Roche Inc., priority 2008, dated 2012).

Molecular target: T1, human GPBAR1 receptor (Homo sapiens, UniProt Q8TDU6)
T1 construct: expressed in transfected cells
T1 sequence (Q8TDU6 1-330): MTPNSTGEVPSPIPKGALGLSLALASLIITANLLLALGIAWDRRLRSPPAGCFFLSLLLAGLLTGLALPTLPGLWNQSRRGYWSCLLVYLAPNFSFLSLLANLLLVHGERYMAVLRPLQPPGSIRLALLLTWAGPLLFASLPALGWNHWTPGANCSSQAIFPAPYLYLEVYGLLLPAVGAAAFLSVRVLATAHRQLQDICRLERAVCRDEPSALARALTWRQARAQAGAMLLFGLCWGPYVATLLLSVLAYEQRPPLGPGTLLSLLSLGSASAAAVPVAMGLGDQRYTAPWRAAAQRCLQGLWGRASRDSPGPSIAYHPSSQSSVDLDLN
Experiment: functional cAMP assay in CHO-dhfr(minus) cells expressing human GPBAR1 receptors
Type: cell-based
Settings: cAMP increase (TR-FRET) in CHO-dhfr(minus) cells expressing human GPBAR1; compounds incubated 30 min at 30° C.

EC50	Structure (SMILES)
217 nM	O=C(c1ccncc1Oc1ccc(Cl)cc1Cl)N1CCCc2cc(F)cc(F)c21 [Example 98, [3-(2,4-Dichloro-phenoxy)-pyridin-4-yl]-(6,8-difluoro-3,4-dihydro-2H-quinolin-1-yl)-methanone]
388 nM	Cc1ccccc1N(C)C(=O)c1ccncc1Oc1ccc(Cl)cc1Cl [Example 99, 3-(2,4-Dichloro-phenoxy)-N-methyl-N-o-tolyl-isonicotinamide]
1050 nM	CN(C(=O)c1ccncc1Oc1ccc(Cl)cc1Cl)c1ccccc1Cl [Example 100, N-(2-Chloro-phenyl)-3-(2,4-dichloro-phenoxy)-N-methyl-isonicotinamide]
299 nM	O=C(c1ccncc1Oc1ccc(F)c(Cl)c1)N1CCCc2ccc(F)cc21 [Example 103, [3-(3-Chloro-4-fluoro-phenoxy)-pyridin-4-yl]-(7-fluoro-3,4-dihydro-2H-quinolin-1-yl)-methanone]
173 nM	O=C(c1ccncc1Oc1ccc(F)c(Cl)c1)N1CCCc2cc(F)ccc21 [Example 104, [3-(3-Chloro-4-fluoro-phenoxy)-pyridin-4-yl]-(6-fluoro-3,4-dihydro-2H-quinolin-1-yl)-methanone]
138 nM	O=C(c1ccncc1Oc1ccc(F)c(Cl)c1)N1CCCc2cc(F)cc(F)c21 [Example 105, [3-(3-Chloro-4-fluoro-phenoxy)-pyridin-4-yl]-(6,8-difluoro-3,4-dihydro-2H-quinolin-1-yl)-methanone]
122 nM	COc1ccccc1N(C)C(=O)c1ccncc1Oc1ccc(F)c(Cl)c1 [Example 108, 3-(3-Chloro-4-fluoro-phenoxy)-N-(2-methoxy-phenyl)-N-methyl-isonicotinamide]
62 nM	O=C(c1cccnc1Oc1cc(Cl)ccc1Cl)N1CCNc2ccccc21 [Example 122, [2-(2,5-Dichloro-phenoxy)-pyridin-3-yl]-(3,4-dihydro-2H-quinoxalin-1-yl)-methanone]
4 nM	O=C(c1cccnc1Oc1cc(Cl)ccc1Cl)N1CCN(C2CC2)c2ccccc21 [Example 125, (4-Cyclopropyl-3,4-dihydro-2H-quinoxalin-1-yl)-[2-(2,5-dichloro-phenoxy)-pyridin-3-yl]-methanone]
10 nM	O=C(c1cccnc1Oc1cc(Cl)ccc1Cl)N1CCN(C2CCC2)c2ccccc21 [Example 126, (4-Cyclobutyl-3,4-dihydro-2H-quinoxalin-1-yl)-[2-(2,5-dichloro-phenoxy)-pyridin-3-yl]-methanone]
14 nM	O=C(c1cccnc1Oc1cc(Cl)ccc1Cl)N1CCN(C2COC2)c2ccccc21 [Example 127, [2-(2,5-Dichloro-phenoxy)-pyridin-3-yl]-(4-oxetan-3-yl-3,4-dihydro-2H-quinoxalin-1-yl)-methanone]
918 nM	O=C1CCN(C(=O)c2cccnc2Oc2cc(Cl)ccc2Cl)c2ccccc21 [Example 128, 1-[2-(2,5-Dichloro-phenoxy)-pyridine-3-carbonyl]-2,3-dihydro-1H-quinolin-4-one]
1830 nM	O=C(c1cccnc1Oc1cc(Cl)ccc1Cl)N1CCC(N2CC(F)(F)C2)c2ccccc21 (stereo not shown) [Example 130, [2-(2,5-Dichloro-phenoxy)-pyridin-3-yl]-[4-(3,3-difluoro-azetidin-1-yl)-3,4-dihydro-2H-quinolin-1-yl]-methanone]
321 nM	CN(C(=O)c1cccnc1Oc1cc(Cl)ccc1Cl)c1ccccc1C1CC1 [Example 131, N-(2-Cyclopropyl-phenyl)-2-(2,5-dichloro-phenoxy)-N-methyl-nicotinamide]
66 nM	CSc1ccccc1N(C)C(=O)c1cccnc1Oc1cc(Cl)ccc1Cl [Example 132, 2-(2,5-Dichloro-phenoxy)-N-methyl-N-(2-methylsulfanyl-phenyl)-nicotinamide]
246 nM	O=C(c1cccnc1Oc1cc(Cl)ccc1Cl)N1CC2CCCN2c2ccccc21 (stereo not shown) [Example 136, [2-(2,5-Dichloro-phenoxy)-pyridin-3-yl]-(2,3,3a,4-tetrahydro-1H-pyrrolo[1,2-a]quinoxalin-5-yl)-methanone]

The remaining lines, values behind:

Structure (SMILES)	EC50
COc1ccccc1N(C)C(=O)c1ccncc1Oc1cc(Cl)ccc1Cl [Example 95, 3-(2,5-Dichloro-phenoxy)-N-(2-methoxy-phenyl)-N-methyl-isonicotinamide]	28 nM
O=C(c1ccncc1Oc1ccc(Cl)cc1Cl)N1CCCc2ccc(F)cc21 [Example 96, [3-(2,4-Dichloro-phenoxy)-pyridin-4-yl]-(7-fluoro-3,4-dihydro-2H-quinolin-1-yl)-methanone]	328 nM
COc1ccccc1N(C)C(=O)c1ccncc1Oc1ccc(Cl)cc1Cl [Example 101, 3-(2,4-Dichloro-phenoxy)-N-(2-methoxy-phenyl)-N-methyl-isonicotinamide]	150 nM
COc1ncccc1N(C)C(=O)c1ccncc1Oc1ccc(Cl)cc1Cl [Example 102, 3-(2,4-Dichloro-phenoxy)-N-(2-methoxy-pyridin-3-yl)-N-methyl-isonicotinamide]	703 nM
Cc1ccccc1N(C)C(=O)c1ccncc1Oc1ccc(F)c(Cl)c1 [Example 106, 3-(3-Chloro-4-fluoro-phenoxy)-N-methyl-N-o-tolyl-isonicotinamide]	425 nM
CN(C(=O)c1ccncc1Oc1ccc(F)c(Cl)c1)c1ccccc1Cl [Example 107, 3-(3-Chloro-4-fluoro-phenoxy)-N-(2-chloro-phenyl)-N-methyl-isonicotinamide]	662 nM
COc1ncccc1N(C)C(=O)c1ccncc1Oc1ccc(F)c(Cl)c1 [Example 109, 3-(3-Chloro-4-fluoro-phenoxy)-N-(2-methoxy-pyridin-3-yl)-N-methyl-isonicotinamide]	562 nM
O=C(c1ccccc1Oc1cc(Cl)ccc1Cl)N1CCCc2ccccc21 [Example 110, [2-(2,5-Dichloro-phenoxy)-phenyl]-(3,4-dihydro-2H-quinolin-1-yl)-methanone]	29 nM
O=C(c1ccccc1Oc1cc(Cl)ccc1Cl)N1CCCc2cc(F)c(F)cc21 [Example 111, [2-(2,5-Dichloro-phenoxy)-phenyl]-(6,7-difluoro-3,4-dihydro-2H-quinolin-1-yl)-methanone]	102 nM
CC1Cc2ccccc2N1C(=O)c1ccccc1Oc1cc(Cl)ccc1Cl (stereo not shown) [Example 112, [2-(2,5-Dichloro-phenoxy)-phenyl]-(2-methyl-2,3-dihydro-indol-1-yl)-methanone]	1710 nM
O=C(c1cc(F)ccc1Oc1cc(Cl)ccc1Cl)N1CCCc2ccccc21 [Example 113, [2-(2,5-Dichloro-phenoxy)-5-fluoro-phenyl]-(3,4-dihydro-2H-quinolin-1-yl)-methanone]	149 nM
CC1CCc2ccccc2N1C(=O)c1cc(F)ccc1Oc1cc(Cl)ccc1Cl (stereo not shown) [Example 114, [2-(2,5-Dichloro-phenoxy)-5-fluoro-phenyl]-(2-methyl-3,4-dihydro-2H-quinolin-1-yl)-methanone]	946 nM
Cc1cccc2c1N(C(=O)c1cc(F)ccc1Oc1cc(Cl)ccc1Cl)CCC2 [Example 115, [2-(2,5-Dichloro-phenoxy)-5-fluoro-phenyl]-(8-methyl-3,4-dihydro-2H-quinolin-1-yl)-methanone]	920 nM
Cc1ccc2c(c1)CCCN2C(=O)c1cc(F)ccc1Oc1cc(Cl)ccc1Cl [Example 116, [2-(2,5-Dichloro-phenoxy)-5-fluoro-phenyl]-(6-methyl-3,4-dihydro-2H-quinolin-1-yl)-methanone]	1160 nM
O=C(c1cc(F)ccc1Oc1cc(Cl)ccc1Cl)N1CCOc2ccccc21 [Example 117, [2-(2,5-Dichloro-phenoxy)-5-fluoro-phenyl]-(2,3-dihydro-benzo[1,4]oxazin-4-yl)-methanone]	572 nM
CN(C(=O)c1cc(F)ccc1Oc1cc(Cl)ccc1Cl)c1ccccc1 [Example 118, 2-(2,5-Dichloro-phenoxy)-5-fluoro-N-methyl-N-phenyl-benzamide]	771 nM
N#Cc1ccc(Oc2cc(Cl)ccc2Cl)c(C(=O)N2CCCc3ccccc32)c1 [Example 119, 4-(2,5-Dichloro-phenoxy)-3-(3,4-dihydro-2H-quinoline-1-carbonyl)-benzo nitrile]	165 nM
Cc1cc(F)c2c(c1)CCCN2C(=O)c1ccccc1Oc1cc(Cl)ccc1Cl [Example 120, [2-(2,5-Dichloro-phenoxy)-phenyl]-(8-fluoro-6-methyl-3,4-dihydro-2H-quinolin-1-yl)-methanone]	1650 nM
O=C(c1ccccc1Oc1cc(Cl)ccc1Cl)N1CCCc2cc(F)cc(F)c21 [Example 121, [2-(2,5-Dichloro-phenoxy)-phenyl]-(6,8-difluoro-3,4-dihydro-2H-quinolin-1-yl)-methanone]	231 nM
CC(C)N1CCN(C(=O)c2cccnc2Oc2cc(Cl)ccc2Cl)c2ccccc21 [Example 124, [2-(2,5-Dichloro-phenoxy)-pyridin-3-yl]-(4-isopropyl-3,4-dihydro-2H-quinoxalin-1-yl)-methanone]	607 nM
C=C1CCN(C(=O)c2cccnc2Oc2cc(Cl)ccc2Cl)c2ccccc21 [Example 129, [2-(2,5-Dichloro-phenoxy)-pyridin-3-yl]-(4-methylene-3,4-dihydro-2H-quinolin-1-yl)-methanone]	24 nM
CN(C(=O)c1cccnc1Oc1cc(Cl)ccc1Cl)c1ccccc1-c1ccnn1C [Example 133, 2-(2,5-Dichloro-phenoxy)-N-methyl-N-[2-(2-methyl-2H-pyrazol-3-yl)-phenyl]-nicotinamide]	1970 nM
CN(C(=O)c1cccnc1Oc1cc(Cl)ccc1Cl)c1ccccc1N [Example 134, N-(2-Amino-phenyl)-2-(2,5-dichloro-phenoxy)-N-methyl-nicotinamide]	1650 nM
CN(C(=O)c1cccnc1Oc1cc(Cl)ccc1Cl)c1cc(Cl)ccc1Cl [Example 135, 2-(2,5-Dichloro-phenoxy)-N-(2,5-dichloro-phenyl)-N-methyl-nicotinamide]	473 nM
